Residues, ends and D or L forms follow the SMILES beside them.
Legend:
[1] = target: T1, Kly18 (Karilysin catalytic domain) (Tannerella forsythia, UniProt D0EM77); test: biochemical; conditions: for Kly18 inhibitory activity, single concentration screen: 87 µM peptide
T1 construct: Karilysin catalytic domain (Kly18) and intact Kly48 were produced as previously described; made in house
Method: (§1) Kly18 and Kly48 protease activities were monitored essentially as described. One hundred µl working volumes were used in black untreated polypropylene microtitre plates and FITC-casein was used as the substrate. Assays were performed at 37°C using 500 nM of Kly18 (or Kly48) in assay buffer (100 mM Tris-HCl, 5mM CaCl2, pH 8.0), at a FITC-casein concentration of 25 µg/ml. […] Peptides were dissolved in Milli Q water and added in varying molarities. The assay setup was as follows; Kly18 (or Kly48) was diluted in assay buffer together with peptide, followed by 30 minutes incubation on a vertical shaker at 22°C. Then FITC-casein was added and fluorescence formation was monitored at 37°C for 90 minutes with measurements every ten minutes.

[2] = target: T1, Kly18 (Karilysin catalytic domain); conditions: cited from earlier work
From the text: The development of MMP inhibitors is highly relevant, due to the involvement of MMPs in several pathologies. Some candidate molecules act by blocking the MMP-active sites via binding to the catalytic Zn^2+ through chelators such as hydroxamate. These approaches have been successful for MMP inhibition. However, the inhibitors have a broad specificity towards other MMPs due to very similar active site geometries of matrix metalloproteinases. An alternative approach to specific MMP inhibitor design is to utilize larger molecules, such as peptides, that interact with the activ ...

Karilysin (Kly48) = target: T2, Karilysin (Kly48) (Tannerella forsythia, UniProt D0EM77); test: Auto-processing of Kly48 monitored by SDS-PAGE; assay type: biochemical; conditions: Kly48 13 µM, peptide 455 µM, 37°C, 50 mM Tris-HCl, 2.5 mM CaCl2, pH 8.0, up to 48 hours
T2 construct: made in house
Method: Karilysin (Kly48) at 13 µM was incubated at 37°C in 50 mM Tris-HCl, 2.5 mM CaCl2, 0.02% NaN3 pH 8.0 alone or in the presence of the peptide SWFPL at 455 µM. At different time points samples were withdrawn and the Kly48 autocatalytic processing was monitored by SDS-PAGE using 10% gels and the Tris-HCl/Tricine buffer system. Gels were stained with 0.1% Coomassie Brilliant Blue R-250 in 10% acetic acid followed by destaining. Samples were run alongside a Low Molecular Weight SDS-PAGE Marker.

intact Karilysin (Kly48) = target: T3, intact Karilysin (Kly48) (Tannerella forsythia, UniProt D0EM77); test: Kly48 protease activity assay with FITC-casein substrate; assay type: biochemical; conditions: 500 nM Kly48, FITC-casein, peptide 2.3 µM to 55.6 µM; three experiments
T3 construct: made in house
Method: as §1

T1 sequence (D0EM77 35-195): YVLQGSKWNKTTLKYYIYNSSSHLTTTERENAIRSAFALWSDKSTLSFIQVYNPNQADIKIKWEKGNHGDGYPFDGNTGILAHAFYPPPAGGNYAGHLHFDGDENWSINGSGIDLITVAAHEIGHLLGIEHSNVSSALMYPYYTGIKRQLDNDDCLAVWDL
T3 sequence (D0EM77 35-472): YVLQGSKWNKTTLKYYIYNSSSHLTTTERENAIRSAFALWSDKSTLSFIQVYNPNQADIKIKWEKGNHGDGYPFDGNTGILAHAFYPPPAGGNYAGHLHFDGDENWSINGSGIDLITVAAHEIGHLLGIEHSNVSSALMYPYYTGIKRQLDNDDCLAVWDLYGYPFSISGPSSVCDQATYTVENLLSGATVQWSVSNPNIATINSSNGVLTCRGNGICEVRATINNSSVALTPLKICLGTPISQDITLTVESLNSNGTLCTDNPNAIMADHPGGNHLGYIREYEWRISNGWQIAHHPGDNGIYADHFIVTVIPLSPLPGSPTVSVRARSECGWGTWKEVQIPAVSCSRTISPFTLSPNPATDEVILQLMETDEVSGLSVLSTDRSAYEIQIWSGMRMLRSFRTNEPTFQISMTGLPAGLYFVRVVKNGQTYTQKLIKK
T2 sequence (D0EM77 35-472): as above

Compound: H-WFPLRSGG-NH2 [15-11]
- Kly18 inhibitory activity, single concentration screen ([1]; FITC-casein substrate): lost most or all of their Kly18 inhibition capacity

Compound: (NH2)-WFPLR-(CONH2) [15-14]
- Kly18 inhibitory activity, single concentration screen ([1]; FITC-casein substrate): lost most or all of their Kly18 inhibition capacity

Compound: H-WFPLRSG-NH2 [15-12]
- Kly18 inhibitory activity, single concentration screen ([1]; FITC-casein substrate): lost most or all of their Kly18 inhibition capacity

Compound: O=C(O)CN(CCN(CC(=O)O)CC(=O)O)CC(=O)O [EDTA]
- Inhibition of Kly18 by small molecule chelators [2]: inhibited

Compound: H-SWAPLRSGGGS-NH2 [15-16]
- Kly18 inhibitory activity, single concentration screen ([1]; FITC-casein substrate): inactive

Compound: c1cnc2c(c1)ccc1cccnc12 [1,10-phenanthroline]
- Inhibition of Kly18 by small molecule chelators [2]: inhibited

Compound: NC(=O)[C@@H]1CCCN1C(=O)[C@H](Cc1ccccc1)NC(=O)[C@H](Cc1c[nH]c2ccccc12)NC(=O)[C@@H](N)CO [15-7, (NH2)-SWFP-(CONH2)] (H-SWFP-NH2)
- Ki [1]: 10.7 ± 2.25 µM
- Kly18 inhibitory activity, single concentration screen ([1]; FITC-casein substrate): retained efficient inhibitory potency

Compound: H-SAAALRSGGGS-NH2 [control peptide, control peptide with the WFP motif replaced by a triple alanine, reference compound]
- Kly18 inhibition at very high dose ([1]; 174 µM peptide, FITC-casein substrate, two experiments): curve similar to that of Kly18 with no peptide present

Compound: H-SWFPLRSGGGS-NH2 [15-0]
- Ki [1]: 5.34 ± 0.51 µM

Compound: H-SWFPL-NH2 [15-6, (NH2)-SWFPL-(CONH2)]
- Ki [1]: 8.36 ± 2.34 µM
- Effect on Kly48 auto-processing to Kly38 and Kly18 (Karilysin (Kly48)): inhibited the auto-processesing efficiently
- Inhibition of Kly48 proteolytic activity (dose-response) (intact Karilysin (Kly48)): clear dose-response inhibition

Compound: (NH2)-WFP-(CONH2) [15-8]
- Kly18 inhibitory activity, single concentration screen ([1]; FITC-casein substrate): lost most or all of their Kly18 inhibition capacity
- Kly18 inhibitory activity, single concentration screen ([1]; FITC-casein substrate, listed as (NH2)-WFP-(CONH2)): completely inactive

Compound: (NH2)-WFPL-(CONH2) [15-15]
- Kly18 inhibitory activity, single concentration screen ([1]; FITC-casein substrate): lost most or all of their Kly18 inhibition capacity

Compound: H-WFPLRSGGG-NH2 [15-10]
- Kly18 inhibitory activity, single concentration screen ([1]; FITC-casein substrate): lost most or all of their Kly18 inhibition capacity

Compound: H-WFPLRS-NH2 [15-13]
- Kly18 inhibitory activity, single concentration screen ([1]; FITC-casein substrate): lost most or all of their Kly18 inhibition capacity

Compound: H-SWFPLR-NH2 [15-5, (NH2)-SWFPLR-(CONH2)]
- Ki [1]: 6.52 ± 0.88 µM

Reference: article PMC3485312, “A Phage Display Selected 7-mer Peptide Inhibitor of the Tannerella forsythia Metalloprotease-Like Enzyme Karilysin can be Truncated to Ser-Trp-Phe-Pro” (PLoS ONE, 2012)
